# Measured values reported in PMC10673058, “In Silico and In Vitro Search for Dual Inhibitors of the Trypanosoma brucei and Leishmania major Pteridine Reductase 1 and Dihydrofolate Reductase” (Molecules, 2023).
# Read-outs that look alike come from different tables or passages of the source.
# What was measured:
# LmDHFR = biological target: T1, LmDHFR (Leishmania major, UniProt P07382); test: Spectrophotometric enzyme inhibition assay, recombinant LmDHFR; type: biochemical
# T1 construct: The DNA fragment encoding LmDHFR was amplified by Phusion DNA polymerase; His6 (N); made in house; host or cells: E. coli BL21(DE3), vector pET 11D::LmDHFRHis
# T1 sequence (P07382 26-229 limits assumed): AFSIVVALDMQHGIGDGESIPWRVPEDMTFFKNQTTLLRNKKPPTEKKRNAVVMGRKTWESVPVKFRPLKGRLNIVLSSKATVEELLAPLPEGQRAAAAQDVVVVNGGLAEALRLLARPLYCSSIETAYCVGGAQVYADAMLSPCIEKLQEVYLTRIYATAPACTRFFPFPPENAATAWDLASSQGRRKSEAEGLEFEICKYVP
# Description: (§1) Based on the in vitro assays against TbPTR1 and LmPTR1 performed in the previous works of our group, as well as the in silico results obtained from the current study, a total of 47 natural products were tested against the target enzymes. […] The concentration-effect curves for the IC50 and EC50 values that were obtained in the present study are depicted in Supplementary Materials Figures S21–S42.
# The TbDHFR concentration was measured to be 0.04 mg/mL and a specific activity of 38.1 U/mg was calculated. The concentration of LmDHFR was 0.05 mg/mL with a specific activity of 56.2 U/mg. All measurements were carried out using the saturating concentrations for dihydrofolate (50 μM) and NADPH (150 μM) in Buffer C (50 mM Tris/HCl (pH 7.6), 250 mM NaCl, 10 mM BME). The saturating conditions for TbDHFR and LmDHFR were determined using the diagrams depicted in Figures S17 and S19 in the Supplementary Materials.
# (§2) The inhibitory effect of the selected natural products was investigated by testing the DMSO solution of each compound at a constant concentration of 100 μM for TbPTR1 and 50 μM for LmPTR1, TbDHFR, and LmDHFR, as well as hDHFR. The concentrations of the cofactor and substrates were set at the previously determined saturating conditions (Section 4.2.5). Each test compound was incubated for 20 min with the respective enzyme and NADPH to ensure a sufficient interaction time before the reaction was induced by the addition of the substrate. The enzymatic activity was determined in duplicates and correlated with a reference that contained just DMSO, instead of an inhibitor. The enzymatic activity of the reference was normalized to 100%.
# (§3) The half-maximal inhibitory concentration (IC50) of the natural products was determined in triplicate, using at least five different inhibitor concentrations against a reference containing no inhibitor. The enzymatic activity was documented and analyzed and the IC50 value was determined by nonlinear regression using GraphPad Prism 9 (GraphPad Software Inc., La Jolla, CA, USA).
# TbPTR1 [1] = biological target: T2, TbPTR1 (Trypanosoma brucei brucei, UniProt O76290)
# T2 construct: His6 (N); made in house; host or cells: E. coli BL21 (DE3), vector pET 15b::TbPTR1His (strain from the group of M. Paola Costi, Modena)
# T2 sequence (O76290 1-268): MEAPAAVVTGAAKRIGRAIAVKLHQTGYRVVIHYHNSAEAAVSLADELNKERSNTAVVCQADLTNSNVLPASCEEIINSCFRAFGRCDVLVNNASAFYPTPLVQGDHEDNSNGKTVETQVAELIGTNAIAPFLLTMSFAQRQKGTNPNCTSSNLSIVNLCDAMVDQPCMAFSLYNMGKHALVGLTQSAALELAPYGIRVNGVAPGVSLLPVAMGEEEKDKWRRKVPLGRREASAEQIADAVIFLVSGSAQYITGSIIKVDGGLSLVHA
# hDHFR = biological target: T3, hDHFR (Homo sapiens, UniProt P00374); test: Spectrophotometric enzyme inhibition assay, recombinant hDHFR (selectivity); type: biochemical; settings: for inhibition at 50 µM: set compound concentration of 50 μM, read-out: relative inhibition of hDHFR; for EC50: read-out: EC50 hDHFR (footnote a)
# T3 construct: His; host or cells: E. coli BL21 (DE3), vector pET 15b::hDHFRHis
# T3 sequence (P00374 1-187): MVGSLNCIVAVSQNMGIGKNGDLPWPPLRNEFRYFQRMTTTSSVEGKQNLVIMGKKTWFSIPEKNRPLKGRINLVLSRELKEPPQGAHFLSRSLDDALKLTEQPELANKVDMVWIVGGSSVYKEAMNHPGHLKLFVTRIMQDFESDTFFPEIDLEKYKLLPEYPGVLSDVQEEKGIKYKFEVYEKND
# Description: For 15 compounds, there was enough substance available to be tested in selectivity studies against hDHFR.
# The used hDHFR concentration was 0.64 mg/mL, with a specific activity of 0.62 U/mg. All measurements were carried out using the saturating concentrations for dihydrofolate (100 μM) and NADPH (50 μM) in Buffer C (50 mM Tris/HCl (pH 7.6), 250 mM NaCl, 10 mM BME). The saturating conditions for hDHFR were determined using the diagrams depicted in Figure S20 in the Supplementary Materials.
# as §2, §3
# LmPTR1 [2] = biological target: T4, LmPTR1 (Leishmania major, UniProt Q01782); set-up: method as in PMID 29211037
# T4 construct: His6 (N); made in house; host or cells: E. coli BL21 (DE3), vector pET 15b::LmPTR1His (strain from the group of M. Paola Costi, Modena)
# T4 sequence (Q01782 1-288): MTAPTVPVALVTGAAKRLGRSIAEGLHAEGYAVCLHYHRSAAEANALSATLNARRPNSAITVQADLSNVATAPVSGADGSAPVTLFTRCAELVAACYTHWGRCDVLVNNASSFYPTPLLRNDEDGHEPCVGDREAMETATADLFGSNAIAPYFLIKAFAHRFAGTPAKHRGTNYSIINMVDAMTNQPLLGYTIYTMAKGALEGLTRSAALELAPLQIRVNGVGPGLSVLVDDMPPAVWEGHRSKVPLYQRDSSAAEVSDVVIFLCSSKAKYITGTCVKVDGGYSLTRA
# TbPTR1 [3] = biological target: T2, TbPTR1; test: Dilution assay for reversible/irreversible inhibition of TbPTR1; type: biochemical; settings: inhibitor concentration near IC50
# Source text: The catalytic center of TbPTR1 contains a cysteine residue (TbCys168) in close proximity to the substrate/inhibitor binding site. In our previous publication, we mentioned the possibility that Sesquiterpene Lactones 1 and 2 might interact as Michael acceptors with TbCys168 by covalent bond formation with its thiol group. Therefore, we have now subjected a selection of natural product inhibitors containing Michael acceptors (1, 2, 5, 17) to initial testing for irreversible inhibition, according to the dilution method described by Bisswanger (see Section 4.2.9).
# In this method, the enzyme activity of the respective enzyme-inhibitor mixture is measured before and after a defined dilution (in this study, 1:2). In the absence of an inhibitor, dilution decreases the enzyme activity proportionally to the dilution factor. […] A reversible inhibitor, on the other hand, will dissociate upon dilution, resulting in a weaker decrease in activity than what corresponds to the dilution effect. In the presence of Inhibitors 1 and 2, the decrease in TbPTR1 activity upon the 1:2 dilution was almost proportional to the dilution factor, i.e., only 9.5% and 6.8% activity, respectively, were recovered compared to the reference. This would indeed support an irreversible mechanism of inhibition. […] However, further investigations on these compounds’ mechanisms of inhibition are under way.
# To assign an either reversible or irreversible inhibition mechanism to selected compounds, the enzymatic activity of an enzyme-inhibitor mixture was determined before and after a defined dilution, using the reaction conditions described in Section 4.2.5 [16].
# Two equivalent solutions with the respective enzyme and inhibitor combination were prepared, one of them being diluted with buffer in a 1:2 ratio shortly before the reaction was started by adding the substrate. The respective inhibitor concentration was set near the IC50 value. The substrate and cofactor concentrations were kept constant in both reaction mixtures. All measurements were carried out in duplicates against a reference containing DMSO instead of the inhibitor. […] If a reversible inhibitor was present, a higher degree of activity recovery (>>10%) could be observed than what corresponds to the dilution factor due to the partial dissociation of the inhibitor from the enzyme upon dilution. The percentual changes in the enzymatic activity of the undiluted and diluted test solution were compared and evaluated to decide the mechanism of inhibition.
# LmPTR1 [4] = biological target: T4, LmPTR1; test: Spectrophotometric enzyme inhibition assay, recombinant LmPTR1; type: biochemical
# Description: as §1
# (§4) The used TbPTR1 concentration was 3.23 mg/mL, with a specific activity of 0.03 U/mg. The measurements were carried out using the enzyme’s individual saturating concentrations for folic acid (8 μM) and NADPH (150 μM) in Buffer A (50 mM Tris/HCl (pH 7.6), 250 mM NaCl). For LmPTR1, the protein concentration was 5.02 mg/mL and the specific activity was calculated to be 0.29 U/mg. Buffer B (50 mM NaH2PO4 (pH 6.0), 100 mM NaCl) was used for all LmPTR1 measurements and the saturating concentrations amounted to 50 μM of folic acid and 200 μM of NADPH. The saturating conditions of the PTR1 enzymes were determined using the diagrams depicted in Figures S16 and S18 in the Supplementary Materials.
# as §2, §3
# TbDHFR = biological target: T5, TbDHFR (Trypanosoma brucei brucei, UniProt Q27783); test: Spectrophotometric enzyme inhibition assay, recombinant TbDHFR; type: biochemical; settings: read-out: IC50 TbDHFR
# T5 construct: pET 11D::TbDHFRHis vector design for the recombinant overexpression of TbDHFR in E. coli; His; made in house; host or cells: E. coli BL21(DE3), vector pET 11D::TbDHFRHis
# Description: Based on the in vitro assays against TbPTR1 and LmPTR1 performed in the previous works of our group, as well as the in silico results obtained from the current study, a total of 47 natural products were tested against the target enzymes.
# The saturating conditions for TbDHFR and LmDHFR were determined using the diagrams depicted in Figures S17 and S19 in the Supplementary Materials.
# as §2, §3
# TbPTR1 [5] = biological target: T2, TbPTR1; test: Spectrophotometric enzyme inhibition assay, recombinant TbPTR1; type: biochemical
# Description: as §1, §4, §2, §3
# L. major = settings: read-out: EC50 against L. major; cited from earlier work
# T. brucei = settings: read-out: EC50 in vitro against T. brucei; cited from earlier work
# [6] = read-out: IC50 LmPTR1; from previous study; cited from earlier work
# T5 sequence (Q27783 28-238 limits assumed): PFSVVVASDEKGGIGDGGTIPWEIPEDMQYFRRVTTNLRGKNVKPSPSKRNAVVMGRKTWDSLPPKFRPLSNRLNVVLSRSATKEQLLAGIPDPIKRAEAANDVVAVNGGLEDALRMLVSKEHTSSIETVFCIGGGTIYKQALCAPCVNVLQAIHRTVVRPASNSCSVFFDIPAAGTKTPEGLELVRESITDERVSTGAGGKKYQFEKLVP
smiles,measurement,setting,value
"O=C(OC1Cc2c(O)cc(O)cc2OC1c1ccc(O)c(O)c1)c1cc(O)c(O)c(O)c1 (single isomer, unassigned; (-)) [Compound 3, (−)-catchin-3-gallate]",IC50,LmDHFR,0.6 µM
same,IC50,TbPTR1 [1]; read-out: IC50 TbPTR1; from previous study; cited from earlier work,> 100 µM
same,IC50,hDHFR,4.2 µM
same,inhibition at 50 µM,hDHFR,> 50%
same,IC50,LmPTR1 [2]; [6],75.3 µM
"C=C1C(=O)O[C@@H]2/C=C(\CO)CC/C=C(\C)C[C@H](OC(=O)C(=C)[C@H](O)CO)[C@@H]12 [Compound 1, cnicin]",TbPTR1 activity recovered upon 1:2 dilution compared to the reference,TbPTR1 [3],9.5%
same,EC50,TbPTR1 [1]; EC50 value; from previous study; read-out: EC50 TbPTR1 (footnote a); cited from earlier work,12.2 µM
same,IC50,hDHFR,> 50 µM
same,inhibition of hDHFR,hDHFR,no relevant inhibition
same,inhibitory effect against LmPTR1,LmPTR1 [4],No relevant inhibitory effect
same,IC50,LmPTR1 [4]; read-out: IC50 LmPTR1,> 50 µM
same,IC50,TbDHFR,> 50 µM
"C=C(CO)C(=O)O[C@H]1CC(=C)[C@@H]2C[C@H](O)C(=C)[C@@H]2[C@H]2OC(=O)C(=C)[C@@H]21 [Compound 2, cynaropicrin]",TbPTR1 activity recovered upon 1:2 dilution compared to the reference,TbPTR1 [3],6.8%
same,IC50,hDHFR,> 50 µM
same,inhibition of hDHFR,hDHFR,no relevant inhibition
same,IC50,LmPTR1 [4],> 50 µM
same,inhibitory effect against LmPTR1,LmPTR1 [4],No relevant inhibitory effect
same,IC50,"TbDHFR; recombinant enzyme, >50 = <50% inhibition at 50 μM",7.12 µM
"COc1cc([C@@H]2Oc3cc(-c4oc5cc(O)cc(O)c5c(=O)c4O)ccc3O[C@H]2CO)ccc1O [Compound 4, 2,3-dehydrosilybin B]",IC50,LmDHFR,2.6 µM
same,EC50,hDHFR,3.8 µM
same,inhibition at 50 µM,hDHFR,> 50%
same,IC50,LmPTR1 [2]; [6],42.9 µM
same,IC50,TbPTR1 [5],> 100 µM
"COc1cc(/C=C/C(=O)CC(=O)/C=C/c2ccc(O)c(OC)c2)ccc1O [Compound 5, curcumin]",EC50,L. major,33 µM
same,TbPTR1 activity recovered upon 1:2 dilution compared to the reference,TbPTR1 [3],16.6%
same,IC50,hDHFR,33.9 µM
same,inhibition at 50 µM,hDHFR,> 50%
same,EC50,T. brucei,2.5 µM
same,IC50,LmPTR1 [4]; read-out: IC50 LmPTR1,> 50 µM
same,IC50,TbPTR1 [5]; read-out: IC50 TbPTR1,18.5 µM
"CC(C)=CCc1c(O)cc2oc3cc(O)c(O)c(CCC(C)(C)O)c3c(=O)c2c1O [Compound 6, garcinone c]",IC50,LmDHFR; read-out: IC50 LmDHFR,3 µM
same,IC50,TbPTR1 [1]; from previous study; read-out: IC50 TbPTR1; cited from earlier work,> 100 µM
same,IC50,hDHFR,1.7 µM
same,EC50,hDHFR,1.7 µM
same,inhibition at 50 µM,hDHFR,> 50%
"O=C(/C=C/c1ccc(O[C@@H]2O[C@H](CO)[C@@H](O)[C@H](O)[C@H]2O)cc1)c1ccc(O)cc1O [Compound 7, isoliquiritin]",IC50,LmDHFR,46.2 µM
same,IC50,hDHFR,> 50 µM
same,IC50,LmPTR1 [2]; from previous study; read-out: IC50 LmPTR1; cited from earlier work,84.5 µM
same,IC50,TbPTR1 [5],> 100 µM
"O=C(/C=C/CCc1ccc(O)c(O)c1)CCc1ccc(O)c(O)c1 [Compound 17, dehydrohirsutanone]",EC50,L. major,> 100 µM
same,TbPTR1 activity recovered upon 1:2 dilution compared to the reference,TbPTR1 [3],12.8%
same,IC50,hDHFR,40.7 µM
same,inhibition at 50 µM,hDHFR,> 50%
same,EC50,T. brucei,2.5 µM
same,IC50,LmPTR1 [4]; read-out: IC50 LmPTR1,> 50 µM
same,IC50,TbDHFR,17.7 µM
same,IC50,TbPTR1 [5]; read-out: IC50 TbPTR1,8.3 µM
"COc1cc(-c2oc3c(OC)c(O)cc(O)c3c(=O)c2OC)c(OC)c(OC)c1OC [Compound 23, 5,7-dihydroxy-3,3′,4′,5′,6′,8-hexamethoxyflavone]",TbPTR1 activity recovered upon 1:2 dilution compared to the reference,TbPTR1 [3],about 33%
